According to ChEMBL document CHEMBL1154627, “Structure-activity relationship studies of targeting ligands against breast cancer cells” (J Med Chem, 2009):
Where a SMILES comes first, the peptide text is derived from it. Bridges are numbered along the chain shown (N, C = ends). [ ]: non-standard residue; d: D form. Tyr(3-NO2) = N[C@@H](Cc1ccc(O)c([N+](=O)[O-])c1)C(=O)O; Hyp = O=C(O)[C@@H]1C[C@@H](O)CN1

test: Binding affinity to alpha3beta1 integrin receptor in human MDA-MB-231 cells assessed as inhibition of cell binding to immobilized LXY1 peptide by cell adherence assay; assay type: cell-based

Row | Structure (SMILES) | IC50 [µM]
1 | COc1cc(C[C@@H]2NC(=O)CNC(=O)[C@@H](CC(=O)O)NC(=O)[C@H](N)CSSC[C@H](C(N)=O)NC(=O)[C@H](CC(N)=O)NC(=O)[C@@H]3C[C@@H](O)CN3C(=O)CNC2=O)ccc1O | > 25
2 | NC(=O)C[C@@H]1NC(=O)[C@@H]2C[C@@H](O)CN2C(=O)CNC(=O)[C@H](Cc2ccc(O)c([N+](=O)[O-])c2)NC(=O)CNC(=O)[C@@H](CC(=O)O)NC(=O)[C@H](NC(=O)NC2CCCCC2)CSSC[C@H](C(N)=O)NC1=O | > 25
3 | N#Cc1cccc([C@@H]2NC(=O)CNC(=O)[C@@H](CC(=O)O)NC(=O)[C@H](N)CSSC[C@H](C(N)=O)NC(=O)[C@H](CC(N)=O)NC(=O)[C@@H]3C[C@@H](O)CN3C(=O)CNC2=O)c1 | > 25
4 | COC(=O)c1ccc(NC(=O)N[C@@H]2CSSC[C@H](C(N)=O)NC(=O)[C@H](CC(N)=O)NC(=O)[C@@H]3C[C@@H](O)CN3C(=O)CNC(=O)[C@H](Cc3ccc(O)c([N+](=O)[O-])c3)NC(=O)CNC(=O)[C@@H](CC(=O)O)NC2=O)cc1 | > 25
5 | NC(=O)C[C@@H]1NC(=O)[C@@H]2C[C@@H](O)CN2C(=O)CNC(=O)[C@H](Cc2ccc(O)c([N+](=O)[O-])c2)NC(=O)CNC(=O)[C@@H](CC(=O)O)NC(=O)[C@H](NCc2ccc(C(F)(F)F)cc2)CSSC[C@H](C(N)=O)NC1=O | > 25
6 | NC(=O)C[C@@H]1NC(=O)[C@@H]2C[C@@H](O)CN2C(=O)CNC(=O)[C@H](Cc2cc(I)c(O)c(I)c2)NC(=O)CNC(=O)[C@@H](CC(=O)O)NC(=O)[C@H](N)CSSC[C@H](C(N)=O)NC1=O | > 25
7 | NC(=O)C[C@@H]1NC(=O)[C@@H]2C[C@@H](O)CN2C(=O)CNC(=O)[C@H](Cc2ccc(O)c([N+](=O)[O-])c2)NC(=O)CNC(=O)[C@@H](CC(=O)O)NC(=O)[C@H](N)CNC(=O)C[C@H](C(N)=O)NC1=O | > 25
8 | NC(=O)C[C@@H]1NC(=O)[C@@H]2C[C@@H](O)CN2C(=O)CNC(=O)[C@H](Cc2ccc(O)c([N+](=O)[O-])c2)NC(=O)CNC(=O)[C@@H](CC(=O)O)NC(=O)[C@H](NC(=O)Nc2ccccc2)CSSC[C@H](C(N)=O)NC1=O | > 25
9 | NC(=O)C[C@@H]1NC(=O)[C@@H]2C[C@@H](O)CN2C(=O)CNC(=O)[C@@H]2C[C@@H](c3ccccc3)CN2C(=O)CNC(=O)[C@@H](CC(=O)O)NC(=O)[C@H](N)CSSC[C@H](C(N)=O)NC1=O | > 25
10 | CCCCNC(=O)N[C@@H]1CSSC[C@H](C(N)=O)NC(=O)[C@H](CC(N)=O)NC(=O)[C@@H]2C[C@@H](O)CN2C(=O)CNC(=O)[C@H](Cc2ccc(O)c([N+](=O)[O-])c2)NC(=O)CNC(=O)[C@@H](CC(=O)O)NC1=O | > 25
11 | COc1ccc(NC(=O)N[C@@H]2CSSC[C@H](C(N)=O)NC(=O)[C@H](CC(N)=O)NC(=O)[C@@H]3C[C@@H](O)CN3C(=O)CNC(=O)[C@H](Cc3ccc(O)c([N+](=O)[O-])c3)NC(=O)CNC(=O)[C@@H](CC(=O)O)NC2=O)cc1OC | > 25
12 | NC(=O)C[C@@H]1NC(=O)[C@@H]2C[C@@H](O)CN2C(=O)CNC(=O)[C@H](Cc2cc(Br)c(O)c(Br)c2)NC(=O)CNC(=O)[C@@H](CC(=O)O)NC(=O)[C@H](N)CSSC[C@H](C(N)=O)NC1=O | > 25
13 | NC(=O)C[C@@H]1NC(=O)[C@@H]2C[C@@H](O)CN2C(=O)CNC(=O)[C@H](Cc2ccc(O)c(I)c2)NC(=O)CNC(=O)[C@@H](CC(=O)O)NC(=O)[C@H](N)CSSC[C@H](C(N)=O)NC1=O | > 25
14 | NC(=O)C[C@@H]1NC(=O)[C@@H]2C[C@@H](O)CN2C(=O)CNC(=O)[C@H](c2ccccc2F)NC(=O)CNC(=O)[C@@H](CC(=O)O)NC(=O)[C@H](N)CSSC[C@H](C(N)=O)NC1=O | > 25
15 | NC(=O)C[C@@H]1NC(=O)[C@@H]2C[C@@H](O)CN2C(=O)CNC(=O)[C@H](Cc2ccc(O)c([N+](=O)[O-])c2)NC(=O)CNC(=O)[C@@H](CC(=O)O)NC(=O)[C@H](NC(=O)Nc2ccc(-c3ccccc3)cc2)CSSC[C@H](C(N)=O)NC1=O | > 25
16 | NC(=O)C[C@@H]1NC(=O)[C@@H]2C[C@@H](O)CN2C(=O)CNC(=O)[C@H](Cc2ccc(O)c([N+](=O)[O-])c2)NC(=O)CNC(=O)[C@@H](CC(=O)O)NC(=O)[C@H](NC(=O)Nc2ccc(Cl)cc2)CSSC[C@H](C(N)=O)NC1=O | > 25
17 | CC(C)NC(=O)N[C@@H]1CSSC[C@H](C(N)=O)NC(=O)[C@H](CC(N)=O)NC(=O)[C@@H]2C[C@@H](O)CN2C(=O)CNC(=O)[C@H](Cc2ccc(O)c([N+](=O)[O-])c2)NC(=O)CNC(=O)[C@@H](CC(=O)O)NC1=O | > 25
18 | NC(=O)C[C@@H]1NC(=O)[C@@H]2C[C@@H](O)CN2C(=O)CNC(=O)[C@H](c2ccc(C(F)(F)F)cc2)NC(=O)CNC(=O)[C@@H](CC(=O)O)NC(=O)[C@H](N)CSSC[C@H](C(N)=O)NC1=O | > 25
19 | NC(=O)C[C@@H]1NC(=O)[C@@H]2C[C@@H](O)CN2C(=O)CNC(=O)[C@H](Cc2ccc(O)c([N+](=O)[O-])c2)NC(=O)CNC(=O)[C@@H](CC(=O)O)NC(=O)[C@H](NCc2cccc([N+](=O)[O-])c2)CSSC[C@H](C(N)=O)NC1=O | > 25
20 | CC(C)CN[C@@H]1CSSC[C@H](C(N)=O)NC(=O)[C@H](CC(N)=O)NC(=O)[C@@H]2C[C@@H](O)CN2C(=O)CNC(=O)[C@H](Cc2ccc(O)c([N+](=O)[O-])c2)NC(=O)CNC(=O)[C@@H](CC(=O)O)NC1=O | > 25
21 | NC(=O)C[C@@H]1NC(=O)[C@@H]2C[C@@H](O)CN2C(=O)CNC(=O)[C@H](Cc2ccc(O)c([N+](=O)[O-])c2)NC(=O)CNC(=O)[C@@H](CC(=O)O)NC(=O)[C@H](NCC2CCCCC2)CSSC[C@H](C(N)=O)NC1=O | > 25
22 | CCCCCCN(CCCCCC)[C@@H]1CSSC[C@H](C(N)=O)NC(=O)[C@H](CC(N)=O)NC(=O)[C@@H]2C[C@@H](O)CN2C(=O)CNC(=O)[C@H](Cc2ccc(O)c([N+](=O)[O-])c2)NC(=O)CNC(=O)[C@@H](CC(=O)O)NC1=O | > 25
23 | CN(C)c1ccc(CN[C@@H]2CSSC[C@H](C(N)=O)NC(=O)[C@H](CC(N)=O)NC(=O)[C@@H]3C[C@@H](O)CN3C(=O)CNC(=O)[C@H](Cc3ccc(O)c([N+](=O)[O-])c3)NC(=O)CNC(=O)[C@@H](CC(=O)O)NC2=O)cc1 | > 25

Further lines, results first:

Row | IC50 [µM] | Structure (SMILES)
24 | 23.7 | NC(=O)C[C@@H]1NC(=O)[C@@H]2C[C@@H](O)CN2C(=O)CNC(=O)[C@H](c2ccc(F)cc2)NC(=O)CNC(=O)[C@@H](CC(=O)O)NC(=O)[C@H](N)CSSC[C@H](C(N)=O)NC1=O
25 | > 25 | NC(=O)C[C@@H]1NC(=O)[C@@H]2C[C@@H](O)CN2C(=O)CNC(=O)[C@H](Cc2ccc(O)c([N+](=O)[O-])c2)NC(=O)CNC(=O)[C@@H](CC(=O)O)NC(=O)[C@H](NCc2ccc(F)c(F)c2)CSSC[C@H](C(N)=O)NC1=O
26 | > 25 | NC(=O)C[C@@H]1NC(=O)[C@@H]2C[C@@H](O)CN2C(=O)CNC(=O)[C@H](Cc2ccc(O)c([N+](=O)[O-])c2)NC(=O)CNC(=O)[C@@H](CC(=O)O)NC(=O)[C@@H](N)CCCCNC1=O
27 | > 25 | NC(=O)C[C@@H]1NC(=O)[C@@H]2C[C@@H](O)CN2C(=O)CNC(=O)[C@H](Cc2ccc(O)c([N+](=O)[O-])c2)NC(=O)CNC(=O)[C@@H](CC(=O)O)NC(=O)[C@H](NCc2cccnc2)CSSC[C@H](C(N)=O)NC1=O
28 | 11.7 | NC(=O)C[C@@H]1NC(=O)[C@@H]2C[C@@H](O)CN2C(=O)CNC(=O)[C@H](c2c(F)c(F)c(F)c(F)c2F)NC(=O)CNC(=O)[C@@H](CC(=O)O)NC(=O)[C@H](N)CSSC[C@H](C(N)=O)NC1=O
29 | 11.9 | NC(=O)C[C@@H]1NC(=O)[C@@H]2C[C@@H](O)CN2C(=O)CNC(=O)[C@H](c2cccc(C(F)(F)F)c2)NC(=O)CNC(=O)[C@@H](CC(=O)O)NC(=O)[C@H](N)CSSC[C@H](C(N)=O)NC1=O
30 | 19.6 | NC(=O)C[C@@H]1NC(=O)[C@@H]2C[C@@H](O)CN2C(=O)CNC(=O)[C@H](c2ccccc2[N+](=O)[O-])NC(=O)CNC(=O)[C@@H](CC(=O)O)NC(=O)[C@H](N)CSSC[C@H](C(N)=O)NC1=O
31 | 11.3 | NC(=O)C[C@@H]1NC(=O)[C@@H]2C[C@@H](O)CN2C(=O)CNC(=O)[C@H](c2cccc(F)c2)NC(=O)CNC(=O)[C@@H](CC(=O)O)NC(=O)[C@H](N)CSSC[C@H](C(N)=O)NC1=O
32 | 17.1 | NC(=O)[C@H]1CSSC[C@@H](N)C(=O)N[C@H](CC(=O)O)C(=O)NCC(=O)N[C@@H](Cc2ccc(O)c([N+](=O)[O-])c2)C(=O)NCC(=O)N2C[C@H](O)C[C@H]2C(=O)N[C@@H](CC(=O)O)C(=O)N1
33 | 6.3 | NC(=O)C[C@@H]1NC(=O)[C@@H]2C[C@@H](O)CN2C(=O)CNC(=O)[C@H](c2ccc(F)c(F)c2)NC(=O)CNC(=O)[C@@H](CC(=O)O)NC(=O)[C@H](N)CSSC[C@H](C(N)=O)NC1=O
34 | 24.1 | NC(=O)C[C@@H]1NC(=O)[C@@H]2C[C@@H](O)CN2C(=O)CNC(=O)[C@@H]2CCCCN2C(=O)CNC(=O)[C@@H](CC(=O)O)NC(=O)[C@H](N)CSSC[C@H](C(N)=O)NC1=O
35 | 13.6 | NCC[C@@H]1NC(=O)[C@@H]2C[C@@H](O)CN2C(=O)CNC(=O)[C@H](Cc2ccc(O)c([N+](=O)[O-])c2)NC(=O)CNC(=O)[C@@H](CC(=O)O)NC(=O)[C@H](N)CSSC[C@H](C(N)=O)NC1=O
36 | 18.5 | NC(=O)C[C@@H]1NC(=O)[C@@H]2C[C@@H](O)CN2C(=O)CNC(=O)[C@@H]2C[C@@H](F)CN2C(=O)CNC(=O)[C@@H](CC(=O)O)NC(=O)[C@H](N)CSSC[C@H](C(N)=O)NC1=O
37 | 5.9 | NC(=O)C[C@@H]1NC(=O)[C@@H]2C[C@@H](O)CN2C(=O)CNC(=O)[C@H](c2cc(F)c(F)c(F)c2)NC(=O)CNC(=O)[C@@H](CC(=O)O)NC(=O)[C@H](N)CSSC[C@H](C(N)=O)NC1=O
38 | 7.4 | NC(=O)C[C@@H]1NC(=O)[C@@H]2C[C@@H](O)CN2C(=O)CNC(=O)[C@H](Cc2ccc(O)c([N+](=O)[O-])c2)NC(=O)CNC(=O)[C@@H](CC(=O)O)NC(=O)[C@H](N)CSSC[C@H](C(N)=O)NC1=O (H-[dC][dD]G[Tyr(3-NO2)]G[Hyp]N[dC]-NH2; disulfide 1-8)
39 | 3.1 | NC(=O)C[C@@H]1NC(=O)[C@@H]2C[C@@H](O)CN2C(=O)CNC(=O)[C@H](c2cccc([N+](=O)[O-])c2)NC(=O)CNC(=O)[C@@H](CC(=O)O)NC(=O)[C@H](N)CSSC[C@H](C(N)=O)NC1=O
40 | 15.3 | NC(=O)C[C@@H]1NC(=O)[C@@H]2C[C@@H](O)CN2C(=O)CNC(=O)[C@@H]2C=CCN2C(=O)CNC(=O)[C@@H](CC(=O)O)NC(=O)[C@H](N)CSSC[C@H](C(N)=O)NC1=O
